The test system of one assay is S. aureus (ATCC: 27660). Format: cell-based. The conditions noted are these: ATCC: 27660, 18 h.
A further assay deals with E. coli D31. It counts as cell-based. The conditions noted are these: Mueller Hinton broth, ~10^5 CFU/mL, 18 hours at 37°C, OD600, lowest concentration with no visible growth, average of 3 independent samples.
The subject of assay [1] is P. aeruginosa (ATCC:10145). It counts as cell-based. Conditions: ATCC:10145, 18 h.
In assay [2] the test system is K. pneumonia (ATCC: 700603). Format: cell-based, K. pneumoniae. The conditions noted are these: 18 h.

Converted amounts (≈) assume the structure as drawn. Square brackets hold non-standard residues; d marks the D form. Ends that are not written are not given here. Peptide text beside a SMILES is read from it. Dap = NC[C@H](N)C(=O)O

As to KKLIKVWAKGFKKAKKLFKGIG [PBP], the MIC was determined as 0.94 µM against S. aureus (ATCC: 27660), 0.94 µM in the assay with E. coli D31, 1.88 µM in assay [1] and 1.88 µM in assay [2].

As for KKLIKVFAKGWKKAKKLFKGIG [PBP-W11], the MIC was 0.47 µM with S. aureus (ATCC: 27660), 1.88 µM in assay [1] and 1.88 µM in assay [2].

With `CC[C@H](C)[C@H](NC(=O)CNC(=O)[C@H](CN)NC(=O)[C@H](Cc1ccccc1)NC(=O)[C@H](CC(C)C)NC(=O)[C@H](CN)NC(=O)[C@H](CN)NC(=O)[C@H](C)NC(=O)[C@H](CN)NC(=O)[C@H](CN)NC(=O)[C@H](Cc1ccccc1)NC(=O)CNC(=O)[C@H](CN)NC(=O)[C@H](C)NC(=O)[C@H](Cc1c[nH]c2ccccc12)NC(=O)[C@@H](NC(=O)[C@H](CN)NC(=O)[C@@H](NC(=O)[C@H](CC(C)C)NC(=O)[C@H](CN)NC(=O)[C@@H](N)CN)[C@@H](C)CC)C(C)C)C(=O)NCC(=O)O` [PBP-X] (H-[Dap][Dap]LI[Dap]VWA[Dap]GF[Dap][Dap]A[Dap][Dap]LF[Dap]GIG-OH), the results for the MIC (against E. coli D31; in assay [1]) were 1.88 µM (≈ 4.02 µg/mL) and 3.75 µM (≈ 8.02 µg/mL), respectively.

Consider KKLIKVFAKGFKKAKKLWKGIG [PBP-W18], for which the MIC in the assay with S. aureus (ATCC: 27660) came to 0.94 µM; in assay [1] it was 1.88 µM; in assay [2] it was 1.88 µM.

For the molecule KKAAKAWAKGAKKAKKLAKGAG [PBP-A], the MIC (with E. coli D31; in assay [1]; in assay [2]) was above 15 µM throughout.

By MIC is commonly meant the smallest concentration in the dilution series that meets the test's criterion for growth inhibition. A high value points to a less susceptible organism.

For the origin of these results see article PMC6324581 (Peptide science (Hoboken, N.J.), 2018).
